Laboratory results as given in article PMC5218480 (PLoS ONE, 2017).

Tested on: MV-4-11 cells
Experiment: Gene expression microarray analysis (Affymetrix PrimeView) and GSEA
Assay type: cell-based, human
Design: RFU PODN (11730768_x_at) / Fold change /veh PODN (11730768_x_at) / RFU LINC00158 (11744669_a_at) / Fold change /veh LINC00158 (11744669_a_at) / RFU DUSP10 (11751237_a_at) / Fold change /veh DUSP10 (11751237_a_at) / RFU ID3 (11757404_x_at) / Fold change /veh ID3 (11757404_x_at) / RFU PLEKHG5 (11737974_s_at) / Fold change /veh PLEKHG5 (11737974_s_at) / RFU LRRC4B (11730491_at) / Fold change /veh LRRC4B (11730491_at) / RFU GIMAP4 (11747438_a_at) / Fold change /veh GIMAP4 (11747438_a_at) / RFU KRT8 (11758183_x_at) / Fold change /veh KRT8 (11758183_x_at) / RFU CNN1 (11734310_a_at) / Fold change /veh CNN1 (11734310_a_at) / RFU VPS37D (11726825_at) / Fold change /veh VPS37D (11726825_at) / RFU C10orf10 (11716522_x_at) / Fold change /veh C10orf10 (11716522_x_at) / RFU KIR2DL2 /// KIR2DL4 /// KIR2DL5A /// KIR2DL5B /// KIR2DS1 /// KIR2DS2 /// KIR2DS3 /// KIR2DS4 /// KIR3DL3 /// KIR3DL3 /// KIR3DS1 (11738374_at) / Fold change /veh KIR2DL2 /// KIR2DL4 /// KIR2DL5A /// KIR2DL5B /// KIR2DS1 /// KIR2DS2 /// KIR2DS3 /// KIR2DS4 /// KIR3DL3 /// KIR3DL3 /// KIR3DS1 (11738374_at) / RFU C1QL1 (11718748_at) / Fold change /veh C1QL1 (11718748_at) / RFU TMPRSS4 (11747572_a_at) / Fold change /veh TMPRSS4 (11747572_a_at) / RFU HAMP (11756126_x_at) / Fold change /veh HAMP (11756126_x_at) / RFU RNFT2 (11725882_a_at) / Fold change /veh RNFT2 (11725882_a_at) / RFU NR4A2 (11747474_a_at) / Fold change /veh NR4A2 (11747474_a_at) / RFU ABCC12 (11746883_a_at) / Fold change /veh ABCC12 (11746883_a_at) / RFU TMEM136 (11760407_x_at) / Fold change /veh TMEM136 (11760407_x_at) / RFU CLDN22 /// WWC2 (11732394_at) / Fold change /veh CLDN22 /// WWC2 (11732394_at) / RFU HLA-DPB1 (11760878_x_at) / Fold change /veh HLA-DPB1 (11760878_x_at) / RFU SPINT1 (11716480_a_at) / Fold change /veh SPINT1 (11716480_a_at) / RFU GAP43 (11754022_s_at) / Fold change /veh GAP43 (11754022_s_at) / RFU A4GNT (11735810_at) / Fold change /veh A4GNT (11735810_at) / RFU PRB3 (11715151_x_at) / Fold change /veh PRB3 (11715151_x_at) / RFU TUBB4B (11761932_at) / Fold change /veh TUBB4B (11761932_at) / RFU CAPN14 (11732068_a_at) / Fold change /veh CAPN14 (11732068_a_at) / RFU TMCC2 (11721928_a_at) / Fold change /veh TMCC2 (11721928_a_at) / RFU IRGQ (11745062_a_at) / Fold change /veh IRGQ (11745062_a_at) / RFU FAM174B (11720279_a_at) / Fold change /veh FAM174B (11720279_a_at) / RFU TMPRSS4 (11748680_a_at) / Fold change /veh TMPRSS4 (11748680_a_at) / RFU FAM212B (11763350_a_at) / Fold change /veh FAM212B (11763350_a_at) / RFU PLEKHG5 (11743358_a_at) / Fold change /veh PLEKHG5 (11743358_a_at) / RFU ZSCAN30 (11745921_a_at) / Fold change /veh ZSCAN30 (11745921_a_at) / RFU CMKLR1 (11741424_a_at) / Fold change /veh CMKLR1 (11741424_a_at) / RFU LOC101060620 /// MAPK8IP1 (11723275_at) / Fold change /veh LOC101060620 /// MAPK8IP1 (11723275_at) / RFU SPTSSB (11747773_x_at) / Fold change /veh SPTSSB (11747773_x_at) / RFU PRSS12 (11739890_at) / Fold change /veh PRSS12 (11739890_at) / RFU BIN1 (11741810_x_at) / Fold change /veh BIN1 (11741810_x_at) / RFU WNT11 (11732464_a_at) / Fold change /veh WNT11 (11732464_a_at) / RFU C10orf10 (11716521_a_at) / Fold change /veh C10orf10 (11716521_a_at) / RFU C5orf56 (11738089_at) / Fold change /veh C5orf56 (11738089_at) / RFU CYB561 (11721691_x_at) / Fold change /veh CYB561 (11721691_x_at) / RFU ANKRD19P (11752326_a_at) / Fold change /veh ANKRD19P (11752326_a_at) / RFU OR2T12 /// OR2T33 /// OR2T8 (11738714_s_at) / Fold change /veh OR2T12 /// OR2T33 /// OR2T8 (11738714_s_at) / RFU VCAN (11748164_a_at) / Fold change /veh VCAN (11748164_a_at) / RFU JSRP1 (11732532_at) / Fold change /veh JSRP1 (11732532_at) / RFU KRTAP10-11 (11738290_x_at) / Fold change /veh KRTAP10-11 (11738290_x_at) / RFU MYO3A (11730013_a_at) / Fold change /veh MYO3A (11730013_a_at) / RFU EBF3 (11725865_a_at) / Fold change /veh EBF3 (11725865_a_at) / RFU CAMK2N1 (11719241_x_at) / Fold change /veh CAMK2N1 (11719241_x_at) / RFU C5orf56 (11738088_a_at) / Fold change /veh C5orf56 (11738088_a_at) / RFU OLFML3 (11715873_a_at) / Fold change /veh OLFML3 (11715873_a_at) / RFU LOC100653217 /// NTM (11731650_a_at) / Fold change /veh LOC100653217 /// NTM (11731650_a_at) / RFU MAPK11 (11762145_a_at) / Fold change /veh MAPK11 (11762145_a_at) / RFU FIZ1 (11724087_x_at) / Fold change /veh FIZ1 (11724087_x_at) / RFU OASL (11726364_x_at) / Fold change /veh OASL (11726364_x_at) / RFU SOX15 (11748057_x_at) / Fold change /veh SOX15 (11748057_x_at) / RFU CD79A (11719716_a_at) / Fold change /veh CD79A (11719716_a_at) / RFU HIST1H1D (11736915_at) / Fold change /veh HIST1H1D (11736915_at) / RFU CASKIN2 (11723855_a_at) / Fold change /veh CASKIN2 (11723855_a_at) / RFU LOC730098 (11760151_x_at) / Fold change /veh LOC730098 (11760151_x_at) / RFU OR4N2 (11742367_at) / Fold change /veh OR4N2 (11742367_at) / RFU PRRT2 (11749266_a_at) / Fold change /veh PRRT2 (11749266_a_at) / RFU SNX32 (11753110_a_at) / Fold change /veh SNX32 (11753110_a_at) / RFU CDHR5 (11726645_a_at) / Fold change /veh CDHR5 (11726645_a_at) / RFU RCAN1 (11760418_a_at) / Fold change /veh RCAN1 (11760418_a_at) / RFU FAM167A (11723789_a_at) / Fold change /veh FAM167A (11723789_a_at) / RFU FAM26E (11764081_at) / Fold change /veh FAM26E (11764081_at) / RFU ISYNA1 (11749810_s_at) / Fold change /veh ISYNA1 (11749810_s_at) / RFU ACY1 (11761880_at) / Fold change /veh ACY1 (11761880_at) / RFU 11764098_at / Fold change /veh 11764098_at / RFU SAMD14 (11745864_x_at) / Fold change /veh SAMD14 (11745864_x_at) / RFU NPB (11741838_a_at) / Fold change /veh NPB (11741838_a_at) / RFU TMPRSS6 (11731388_a_at) / Fold change /veh TMPRSS6 (11731388_a_at) / RFU KRTAP10-2 (11738614_at) / Fold change /veh KRTAP10-2 (11738614_at) / RFU ARHGAP8 /// PRR5-ARHGAP8 (11727945_x_at) / Fold change /veh ARHGAP8 /// PRR5-ARHGAP8 (11727945_x_at) / RFU KRTAP5-7 /// NADSYN1 (11734609_at) / Fold change /veh KRTAP5-7 /// NADSYN1 (11734609_at) / RFU RASL12 (11751679_a_at) / Fold change /veh RASL12 (11751679_a_at) / RFU CDKN2B (11736163_a_at) / Fold change /veh CDKN2B (11736163_a_at) / RFU PRF1 (11729649_at) / Fold change /veh PRF1 (11729649_at) / RFU, ZNF638 /// ZNF638-IT1 / Fold change vs veh, ZNF638 /// ZNF638-IT1 / RFU, PANK3 / Fold change vs veh, PANK3 / RFU, SH3YL1 / Fold change vs veh, SH3YL1 / RFU, ZEB2 / Fold change vs veh, ZEB2 / RFU, NRIP1 / Fold change vs veh, NRIP1 / RFU, PTTG1IP / Fold change vs veh, PTTG1IP / RFU, CAPN2 / Fold change vs veh, CAPN2 / RFU, MED14 / Fold change vs veh, MED14 / RFU, SNORA58 / Fold change vs veh, SNORA58 / RFU, C1orf63 / Fold change vs veh, C1orf63 / RFU, LRRFIP1 / Fold change vs veh, LRRFIP1 / RFU, NDUFAF7 / Fold change vs veh, NDUFAF7 / RFU, SLC12A2 / Fold change vs veh, SLC12A2 / RFU, IBTK / Fold change vs veh, IBTK / RFU, ESF1 / Fold change vs veh, ESF1 / Fold change vs veh, TMEM50B / RFU, TAOK1 / Fold change vs veh, TAOK1 / RFU, ACBD3 / Fold change vs veh, ACBD3 / RFU, TMA16 / Fold change vs veh, TMA16 / RFU, RWDD3 / Fold change vs veh, RWDD3 / RFU, BCAT1 / Fold change vs veh, BCAT1 / RFU, EDEM3 / Fold change vs veh, EDEM3 / RFU, TMEM33 / Fold change vs veh, TMEM33 / RFU, WDR75 / Fold change vs veh, WDR75 / RFU, AHCTF1 / Fold change vs veh, AHCTF1 / RFU, TFRC / Fold change vs veh, TFRC / RFU, ZDHHC17 / Fold change vs veh, ZDHHC17 / RFU, NOM1 / Fold change vs veh, NOM1 / RFU, ARL8B / Fold change vs veh, ARL8B / RFU, ZBTB11 / Fold change vs veh, ZBTB11 / RFU, TAMM41 / Fold change vs veh, TAMM41 / RFU, KIAA1704 /// LOC100996395 / Fold change vs veh, KIAA1704 /// LOC100996395 / RFU, ING1 / Fold change vs veh, ING1 / RFU, TRMT61B / Fold change vs veh, TRMT61B / RFU, FUBP3 / Fold change vs veh, FUBP3 / RFU, TP53 / Fold change vs veh, TP53 / RFU, TNKS2 / Fold change vs veh, TNKS2 / RFU, ZFP14 / Fold change vs veh, ZFP14 / RFU, ACTR2 / Fold change vs veh, ACTR2 / RFU, PPP3R1 / Fold change vs veh, PPP3R1 / RFU, PIK3R1 / Fold change vs veh, PIK3R1 / RFU, HNRNPA1 / Fold change vs veh, HNRNPA1 / RFU, RNF170 / Fold change vs veh, RNF170 / RFU, ZNF28 / Fold change vs veh, ZNF28 / RFU, RNGTT / Fold change vs veh, RNGTT / RFU, OGT / Fold change vs veh, OGT / RFU, BRD1 / Fold change vs veh, BRD1 / RFU, MARS / Fold change vs veh, MARS / RFU, ZNF655 / Fold change vs veh, ZNF655 / RFU, FAHD1 / Fold change vs veh, FAHD1 / RFU, BDP1 / Fold change vs veh, BDP1 / RFU, LRRCC1 / Fold change vs veh, LRRCC1 / RFU, ARID1A / Fold change vs veh, ARID1A / RFU, ZNF146 / Fold change vs veh, ZNF146 / RFU, ZNF330 / Fold change vs veh, ZNF330 / RFU, GPN3 / Fold change vs veh, GPN3 / RFU, C9orf123 / Fold change vs veh, C9orf123 / RFU, N4BP2L2 / Fold change vs veh, N4BP2L2 / RFU, ARFIP1 / Fold change vs veh, ARFIP1 / RFU, FAM179B / Fold change vs veh, FAM179B / RFU, BCL10 / Fold change vs veh, BCL10 / RFU, UHRF1BP1L / Fold change vs veh, UHRF1BP1L / RFU, BET1 / Fold change vs veh, BET1 / RFU, CNOT2 / Fold change vs veh, CNOT2 / RFU, ZNF268 / Fold change vs veh, ZNF268 / Fold change vs veh, ZNF507 / RFU, DGCR2 / Fold change vs veh, DGCR2 / RFU, WDSUB1 / Fold change vs veh, WDSUB1 / Fold change vs veh, HSP90B1 /// MIR3652 / RFU, ADSS / Fold change vs veh, ADSS / RFU, GK / Fold change vs veh, GK / RFU, ZNF148 / Fold change vs veh, ZNF148 / RFU, TAF9 / Fold change vs veh, TAF9 / RFU, SLC1A5 / Fold change vs veh, SLC1A5 / RFU, SLMO2 / Fold change vs veh, SLMO2 / RFU, ABCC4 / Fold change vs veh, ABCC4 / RFU, LOC101060439 /// RAP1B / Fold change vs veh, LOC101060439 /// RAP1B / RFU, RFX7 / Fold change vs veh, RFX7 / RFU, GTPBP10 / Fold change vs veh, GTPBP10 / RFU, CNEP1R1 / Fold change vs veh, CNEP1R1 / RFU, BIVM-ERCC5 /// ERCC5 / Fold change vs veh, BIVM-ERCC5 /// ERCC5 / RFU, ILF3 / Fold change vs veh, ILF3 / RFU 11762660_at / Fold change /veh 11762660_at / RFU VCAN (11757783_s_at) / Fold change /veh VCAN (11757783_s_at) / RFU DDX43 (11728927_at) / Fold change /veh DDX43 (11728927_at) / RFU KRT8 (11758188_x_at) / Fold change /veh KRT8 (11758188_x_at) / RFU NKD1 (11759106_at) / Fold change /veh NKD1 (11759106_at) / RFU SRD5A1 (11742802_a_at) / Fold change /veh SRD5A1 (11742802_a_at) / RFU TPSAB1 /// TPSB2 (11721975_s_at) / Fold change /veh TPSAB1 /// TPSB2 (11721975_s_at) / RFU GSTM3 (11746129_a_at) / Fold change /veh GSTM3 (11746129_a_at) / RFU IL23R (11737362_x_at) / Fold change /veh IL23R (11737362_x_at) / RFU TMEM51 (11727254_a_at) / Fold change /veh TMEM51 (11727254_a_at) / RFU PIWIL2 (11732686_x_at) / Fold change /veh PIWIL2 (11732686_x_at) / RFU ORM1 (11744905_x_at) / Fold change /veh ORM1 (11744905_x_at) / RFU CCDC152 (11743942_at) / Fold change /veh CCDC152 (11743942_at) / RFU ECM1 (11717891_a_at) / Fold change /veh ECM1 (11717891_a_at) / RFU IL23R (11748794_a_at) / Fold change /veh IL23R (11748794_a_at) / RFU TNFAIP8L3 (11732012_x_at) / Fold change /veh TNFAIP8L3 (11732012_x_at) / RFU MBOAT4 (11741988_at) / Fold change /veh MBOAT4 (11741988_at) / RFU 11764193_at / Fold change /veh 11764193_at / RFU TMEM53 (11763286_at) / Fold change /veh TMEM53 (11763286_at) / RFU MAGEB2 (11727129_at) / Fold change /veh MAGEB2 (11727129_at) / RFU TMEM200A (11744735_a_at) / Fold change /veh TMEM200A (11744735_a_at) / RFU CCDC152 (11751479_a_at) / Fold change /veh CCDC152 (11751479_a_at) / RFU FAM211A (11726209_a_at) / Fold change /veh FAM211A (11726209_a_at) / RFU RGS16 (11746705_a_at) / Fold change /veh RGS16 (11746705_a_at) / RFU VCAN (11755009_s_at) / Fold change /veh VCAN (11755009_s_at) / RFU RHOB (11743442_s_at) / Fold change /veh RHOB (11743442_s_at) / RFU RGS16 (11720943_a_at) / Fold change /veh RGS16 (11720943_a_at) / RFU RGS16 (11720944_at) / Fold change /veh RGS16 (11720944_at) / RFU, VPS4B / Fold change vs veh, VPS4B / RFU, CREB1 / Fold change vs veh, CREB1 / RFU, DNAJC13 / Fold change vs veh, DNAJC13 / RFU, GNAQ / Fold change vs veh, GNAQ / RFU, CDK5R1 / Fold change vs veh, CDK5R1 / RFU, ZRANB3 / Fold change vs veh, ZRANB3 / RFU, CUL4A / Fold change vs veh, CUL4A / RFU, CCNY / Fold change vs veh, CCNY / RFU, UFL1 / Fold change vs veh, UFL1 / RFU, COG3 / Fold change vs veh, COG3 / RFU, DIAPH2 / Fold change vs veh, DIAPH2 / RFU, SKA2 / Fold change vs veh, SKA2 / RFU, AFF3 / Fold change vs veh, AFF3 / RFU, LMF1 / Fold change vs veh, LMF1 / RFU, IPO11 / Fold change vs veh, IPO11 / RFU, DFFB / Fold change vs veh, DFFB / RFU, FOXP1 / Fold change vs veh, FOXP1 / RFU, CARD8 / Fold change vs veh, CARD8 / RFU, STRN3 / Fold change vs veh, STRN3 / RFU, ADK / Fold change vs veh, ADK / RFU, RASSF2 / Fold change vs veh, RASSF2 / RFU, WIPF1 / Fold change vs veh, WIPF1 / RFU, LARP1B / Fold change vs veh, LARP1B / RFU, RASA1 / Fold change vs veh, RASA1 / RFU, RB1 / Fold change vs veh, RB1 / RFU, PPFIA1 / Fold change vs veh, PPFIA1 / RFU, MAT2A / Fold change vs veh, MAT2A / RFU, CCT5 / Fold change vs veh, CCT5 / RFU, WDR92 / Fold change vs veh, WDR92 / RFU, CUX1 / Fold change vs veh, CUX1 / RFU, TTC7A / Fold change vs veh, TTC7A / RFU, TMEM135 / Fold change vs veh, TMEM135 / RFU, DEPTOR / Fold change vs veh, DEPTOR / RFU, CPM / Fold change vs veh, CPM / RFU, DNAJB6 / Fold change vs veh, DNAJB6 / RFU, CACNA2D3 / Fold change vs veh, CACNA2D3 / RFU, DTX4 / Fold change vs veh, DTX4 / RFU, TFCP2 / Fold change vs veh, TFCP2 / RFU, GMCL1 /// GMCL1P1 / Fold change vs veh, GMCL1 /// GMCL1P1 / RFU, AEBP2 / Fold change vs veh, AEBP2 / RFU, SNHG1 /// SNORD22 /// SNORD25 /// SNORD26 /// SNORD27 /// SNORD28 /// SNORD29 /// SNORD31 / Fold change vs veh, SNHG1 /// SNORD22 /// SNORD25 /// SNORD26 /// SNORD27 /// SNORD28 /// SNORD29 /// SNORD31 / Fold change (Aza/veh), C12orf56 (ProbeSet 11735607_a_at) / Fold change (ACY-1035/veh), C12orf56 (ProbeSet 11735607_a_at) / Fold change (Aza/veh), FGFR1OP (ProbeSet 11751329_s_at) / Fold change (ACY-1035/veh), FGFR1OP (ProbeSet 11751329_s_at) / Fold change (Aza/veh), VPS36 (ProbeSet 11739960_a_at) / Fold change (ACY-1035/veh), VPS36 (ProbeSet 11739960_a_at) / RFU SYPL1 (11715823_x_at) / Fold change /veh SYPL1 (11715823_x_at) / RFU IGFBP7 (11715501_s_at) / Fold change /veh IGFBP7 (11715501_s_at) / RFU REEP3 (11722064_at) / Fold change /veh REEP3 (11722064_at) / RFU IGLL1 (11728026_x_at) / Fold change /veh IGLL1 (11728026_x_at): dose or concentration left out as unconfirmed
Settings: MV-4-11 cells, 48 hours

Structure (SMILES): Nc1ccc(-c2cccs2)cc1NC(=O)c1ccc2c(c1)cc(C1CC1)n2CCN1CCOCC1 [ACY-1035]
- RFU IGFBP7 (11715501_s_at): 134.15 RFU
